In patent US12673039B2, “Methods of inducing autophagy using coumarin derivatives and related compounds” (Buck Institute for Research on Aging, priority 2019, dated 2026):

Test system: C. elegans
Assay: C. elegans lifespan assays
Type: in vivo
Description: FIG. 21, panels A-F: AIC106 prevents neuronal loss and proteotoxicity in strains expressing human neurotoxic proteins. Panel A) Dopaminergic neuronal loss in day-5 UA44 worms was quantified by scoring percentage of worms with intact 4-CEP neurons in AIC106 and DMSO-control treatment. [N=3 independent experiments (mean±SD). ***p<0.001, by one-way ANOVA with Tukey's multiple comparisons test]. Motor function in (panel B) day-7 NL5901 and (panel C) day-5 CL2006 worms were quantified by scoring number of thrashes for an individual worm over the period of 30 seconds (dots) in AIC106 and DMSO-control treatment. [N=3 independent experiments (mean±SD). **p<0.01, ***p<0.001 and ****p<0.0001, by one-way ANOVA with Tukey's multiple comparisons test]. Panel D) Motor function in temperature sensitive (enhanced paralysis at 25° C.) CL4176 worms was determined by scoring percent of worms paralyzed in AIC106 and DMSO-control treatment. [N=3 independent experiments (mean±SD). **p<0.01, by one-way ANOVA with Tukey's multiple comparisons test]. Panel E) Lifespan analysis of CL6049 worms exposed to AIC106 and DMSO-control. [N=2 independent experiments, Treatment (median survival in days, P value compared to DMSO-control): DMSO-control (12), AIC106 10 μM (15, p<0.01), 20 μM (15, p<0.0001) and 50 μM (17, p<0.0001). P-value calculated by Logrank test]. Panel F) Effect of AIC106 on polyQ40 aggregation was determined by scoring number of polyQ40-YFP fluorescent puncta in an individual AM141 worm treated with AIC106 and DMSO-control. [N=3 independent experiments (mean±SD). *p<0.05 and ***p<0.001, by one-way ANOVA with Tukey's multiple comparisons test].
FIG. 27, panels A-C: AIC106 induces mitophagy and increases lifespan. Panel A) Relative fold change in mRNA of key mitophagy genes including dct-1, pink-1 and pdr-1 was quantified by qRT-PCR after DMSO-control and AIC106 24 hours treatment in young adult N2 and hlh-30(tm1978) mutants. [N=3 independent experiments (mean±SD). **p<0.01 and ****p<0.0001, by two-way ANOVA with Sidak's multiple comparisons test]. Short exposure (1 week) of AIC106 increased survival of (panel B) wild type N2: DMSO-control (median-12 days), AIC106 50 μM (median-15 days, p<0.0001) and (panel C) mitophagy deficient pdr-1(tm598): mutant DMSO-control (median-15 days), AIC106 50 μM (median −17 days, p<0.001)]. [N=3 independent experiments, P value compared to respective DMSO-control and calculated by Logrank test).
FIG. 28, panels A-B: AIC106 prevents neuronal loss and proteotoxicity in strains expressing human neurotoxic proteins. Panel A) Motor function in day-7 NL5901 were quantified by scoring number of thrashes for an individual worm over the period of 30 seconds (dots) in AIC106 and DMSO-control treatment. [N=3 independent experiments (mean±SD). ***p<0.001 and ****p<0.0001, by one-way ANOVA with Tukey's multiple comparisons test]. Panel B) Lifespan analysis of CL6049 worms exposed to AIC106 and DMSO-control. [N=2 independent experiments, Treatment (median survival in days, P value compared to DMSO-control): DMSO-control RNAi (18), CL6049-AIC106 control RNAi (21, p<0.0001), CL6049-AIC106 hlh-30 RNAi (17, p<0.0001) and 50 μM (17, p<0.0001). P-value calculated by Logrank test].
Lifespan assays for CL6049 and pdr-1(tm598) strains was performed after treating day-1 adult worms with DMSO or AIC106. A synchronized 35-40 young day-1 adult worms were transferred to each 35 mm compound-treated plates supplemented with FuDR containing control DMSO or AIC106 and kept at 20° C. Worms were scored as alive, dead, or lost every alternate day. […] Worms that died from causes other than aging, such as sticking to the plate walls, internal hatching of eggs (bagging), or gonadal extrusion were censored as lost. Worms were transferred to fresh-drugged plates every 3-5 days. All lifespan experiments were performed at 20° C.

Structure (SMILES): O=c1oc2c3c4c(cc2c2c1CCC2)CCCN4CCC3 [C1, 2,3,6,7,10,11-Hexahydro-1H,5H-cyclopenta(3,4)(1)benzopyrano(6,7,8-ij)quinolizin-12(9H)-one]
- median survival (CL6049, 50 μM as listed in FIG. 28 panel B legend): 17 days
- median survival (CL6049, control RNAi, DMSO-control RNAi 18): 21 days
- median survival (CL6049, hlh-30 RNAi): 17 days
- median survival (CL6049 worms, 10 μM, DMSO-control 12): 15 days
- median survival (CL6049 worms, 20 μM, DMSO-control 12): 15 days
- median survival (CL6049 worms, 50 μM, DMSO-control 12): 17 days
- human TDP-43 toxicity (survival) (CL6049 worms, dose dependent): protected against human TDP-43 toxicity
- lifespan (short treatment (1 week post-development)): significant increase in lifespan of both wild type N2 and pdr-1 mutant
